# Results reported in patent US8242113B2, “Oxazolidinone derivatives with cyclic amidoxime or cyclic amidrazone pharmaceutical compositions thereof” (Legochem Biosciences, Inc., priority 2008, dated 2012).
# Key:
# [1] = target: T1, monoamine oxidase B (MAO B) (Homo sapiens, UniProt P27338); assay: MAO inhibition (MAO-GLO assay); assay type: biochemical; details: MAO-GLO kit, compounds at 3.9-500 uM; read-out: MAOB
# T1 construct: purchased Sigma-Aldrich (USA)
# T1 sequence (P27338 1-520): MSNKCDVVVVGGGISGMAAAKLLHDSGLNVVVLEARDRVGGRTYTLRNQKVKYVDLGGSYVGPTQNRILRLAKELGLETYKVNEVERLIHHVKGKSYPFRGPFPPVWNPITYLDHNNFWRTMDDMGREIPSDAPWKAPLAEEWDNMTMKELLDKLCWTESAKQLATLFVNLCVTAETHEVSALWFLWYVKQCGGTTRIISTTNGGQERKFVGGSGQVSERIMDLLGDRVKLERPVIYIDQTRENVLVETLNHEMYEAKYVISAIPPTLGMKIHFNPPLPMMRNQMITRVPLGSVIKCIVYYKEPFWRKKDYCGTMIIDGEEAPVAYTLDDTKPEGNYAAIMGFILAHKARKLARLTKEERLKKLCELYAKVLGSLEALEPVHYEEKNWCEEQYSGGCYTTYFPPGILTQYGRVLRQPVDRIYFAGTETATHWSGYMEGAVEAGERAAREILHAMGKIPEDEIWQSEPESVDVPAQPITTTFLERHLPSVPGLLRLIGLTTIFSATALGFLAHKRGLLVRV
# Protocol: (§1) The oxazolidinone derivatives according to the present invention synthesized in the examples were tested for inhibition of monoamine oxidase A (MAO A) and monoamine oxidase B (MAO B). MAO-GLO assay kit was purchased from Promega (USA) and MAO A and MAO B enzymes were purchased from Sigma-Aldrich (USA). From the aldehyde product resulting from the action of the MAO enzyme on the amine group of the substrate, luciferin methyl ester is produced. The luciferin detection reagent is then added to inactivate the MAO enzymes. The esterase and the luciferase included in the reagent oxidize luciferin, thereby emitting light. The light emission is detected to measure the activity of MAO. The light emission was detected using LEADseeker (Amershan Bioscience, Sweden). MAO activity was measured in the presence of the compounds according to the present invention at 3.9-500 uM and compared with the non-treated control group. Linezolid was used as a comparison compound. For the measurement of the MAO inhibition activity of the compounds represented by Chemical Formula 1, the IC50 value, i.e., the concentration of the compounds at which the enzymatic activity is inhibited by 50% (This value is related with the inhibition constant Ki), can be determined. The concentration of the inhibitor at which the rate of hydrolysis of the substrate is reduced to 50% (i.e., the IC50 value) can be determined from a log plot of the relative rate of hydrolysis (as compared to the non-inhibited control group) versus the concentration of the compounds of Chemical Formula 1.
# (§2) The MAO inhibition effect of the compounds of Chemical Formula 1 was measured by determining the inhibition constant Ki. Ki=IC50/{1+(┌S┐/Km)} Equation 1
# (§3) In Equation 1, Km is the Michaelis-Menten constant, i.e., the concentration of the substrate at which the rate of enzymatic reaction is half of the maximum, and IC50 is the concentration of the inhibitor at which the rate of the hydrolysis of the substrate is reduced by 50%. The IC50 value was measured by plotting a log plot of the relative rate of hydrolysis (as compared to the non-inhibited control group) versus the concentration of the compounds of Chemical Formula 1. GraFit statistical analysis program (version 5.0.12) purchased from Erithacus Software was used.
# [2] = target: T2, monoamine oxidase A (MAO A) (Homo sapiens, UniProt P21397); assay: MAO inhibition (MAO-GLO assay); assay type: biochemical; details: MAO-GLO kit, compounds at 3.9-500 uM; read-out: MAOA
# T2 construct: purchased Sigma-Aldrich (USA)
# T2 sequence (P21397 1-527): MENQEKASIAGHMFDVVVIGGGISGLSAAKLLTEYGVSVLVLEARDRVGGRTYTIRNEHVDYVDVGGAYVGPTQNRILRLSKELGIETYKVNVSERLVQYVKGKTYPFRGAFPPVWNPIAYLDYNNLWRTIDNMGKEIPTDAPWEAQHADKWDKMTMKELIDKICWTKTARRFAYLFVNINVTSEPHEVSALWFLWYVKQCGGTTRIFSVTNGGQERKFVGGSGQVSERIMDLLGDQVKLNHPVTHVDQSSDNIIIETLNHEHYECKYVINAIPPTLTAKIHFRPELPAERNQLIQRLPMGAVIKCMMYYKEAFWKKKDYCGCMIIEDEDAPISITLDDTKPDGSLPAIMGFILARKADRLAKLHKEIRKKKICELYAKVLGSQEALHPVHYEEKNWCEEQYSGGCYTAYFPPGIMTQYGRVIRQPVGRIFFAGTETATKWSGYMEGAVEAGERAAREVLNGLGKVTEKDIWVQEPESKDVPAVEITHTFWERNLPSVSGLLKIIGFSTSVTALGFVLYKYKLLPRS
# Protocol: as §1, §2, §3
# [3] = Cytotoxicity measurement by MTT assay; assay type: cell-based; details: Chinese hamster
# Description: The MTT assay is a […], colorimetric assay for mammalian cell survival and cell proliferation. It depends on the reduction of tetrazolium salt MTT by the mito-chondrial succinate dehrogenase of viable cells to form a blue formazan product. The assay measures cell respiration, and the amount of formazan product to the number of living cells present in culture. In this test, Chinese hamster ovary cells (CHO-K1) were purchased from ATCC (USA). Subcultured CHO cells were detached from the culture flask by treating with trypsin-EDTA solution, and seeded on a 96-well microplate, with 5000 cells per each well. After culturing for 24 hours in a 37° C., 5% CO2 incubator, the cells were treated with the oxazolidinone derivatives according to the present invention synthesized in the above examples, at 7 different concentrations. After further culturing for 48 hours in a 37° C., 5% CO2 incubator, 15 uL of […] MTT solution was added to each well. The cells were further incubated in the 37° C., 5% CO2 incubator for about 2 hours. Then, the culture medium was discarded and 100 uL of DMSO solution was added to each well. After agitating the microplate for 30 minutes, absorbance was measured at 550 nm using Spectramax plus 190 plate reader (Molecular Devices, USA). The absorbance decrease of the compound-treated groups compared to the non-treated control group is an indication of the decrease of surviving cells, which enables the measurement of the cytotoxicity of the compounds. The CC50 value, i.e., the concentration at which the cell proliferation is reduced to 50%, of the compounds according to the present invention was computed using the GraFit statistical analysis program (version 5.0.12) purchased from Erithacus Software after calculating the percentages of the absorbance at various concentrations as compared to the control group.
# [4] = system: methicillin-resistant Staphylococcus aureus (MRSA); assay: In vitro antibacterial activity, broth microdilution (MIC90); details: read-out: Antibacterial activity MIC90, MRSA
# Description: (§4) MIC90 measurement was made according to the broth microdilution method based on the CLSI document [Clinical and Laboratory Standards Institute Document.
# (§5) The test compounds in DMSO solution were further diluted 20-fold with sterile distilled water.
# [5] = system: linezolid- and vancomycin-resistant Enterococcus faecalis (LVRE); assay: as above; details: read-out: Antibacterial activity MIC90, LVRE
# Description: as §4, §5
# [6] = Measurement of solubility in water by 1H NMR; assay type: physicochemical; details: water, thermodynamic from solid
# Protocol: Water solubilities of methanesulfonates (MSA) of representative compounds among the oxazolidinone derivatives of Chemical Formula 1 were measured.
# Solubility measurement was done by ^1H NMR according to the following method. First, a methanesulfonate (100 mg) of the compound was added to D2O (0.5 mL). After preparing a saturated solution by vigorous shaking for 30 minutes, the solution was filtered and 0.3 mL is taken therefrom. A reference compound solution (0.3 mL) (In this test example, DMSO diluted with D2O was used.) with an exactly known concentration was added thereto. From the ^1H NMR spectrum of the solution, the integral ratio of the sample peak to the reference (DMSO) peak was calculated. Since the concentration of the reference solution is known, the mols of the sample can be calculated from the integral ratio. Then, the solubility of the sample was calculated.
Compound,IC50 [1],IC50 [2],CC50 at 48 h [3],MIC90 [4],MIC [5],solubility at 30 min [6],MIC90 [5]
COC(=S)NC[C@H]1CN(c2ccc(N3C=NN(C=O)CC3)c(F)c2)C(=O)O1 [Compound 53],58 µM,24 µM,> 130 µM,0.5 µg/mL,8 µg/mL,–,–
CN1CCN(c2ccc(N3C[C@H](Cn4ccnn4)OC3=O)cc2F)C=N1 [Compound 83],207 µM,19 µM,> 130 µM,1 µg/mL,16 µg/mL,117 mg/mL,–
O=CN1CCN(c2ccc(N3C[C@H](CNc4ccon4)OC3=O)cc2F)C=N1 [Compound 85],–,–,–,0.5 µg/mL,16 µg/mL,–,–
O=C1O[C@@H](CNc2ccon2)CN1c1ccc(N2C=NNCC2)c(F)c1 [Compound 86],–,–,–,0.5 µg/mL,8 µg/mL,–,–
O=C(CO)N1CCN(c2ccc(N3C[C@H](CNc4ccon4)OC3=O)cc2F)C=N1 [Compound 87],–,–,–,0.5 µg/mL,8 µg/mL,–,–
CC(=O)OCC(=O)N1CCN(c2ccc(N3C[C@H](CNc4ccon4)OC3=O)cc2F)C=N1 [Compound 88],–,–,–,0.5 µg/mL,8 µg/mL,–,–
CCN1CCN(c2ccc(N3C[C@H](CNc4ccon4)OC3=O)cc2F)C=N1 [Compound 90],–,–,–,2 µg/mL,8 µg/mL,–,–
C#CCN1CCN(c2ccc(N3C[C@H](CNc4ccon4)OC3=O)cc2F)C=N1 [Compound 91],–,–,–,0.5 µg/mL,8 µg/mL,–,–
O=CN1CCN(c2ccc(N3C[C@H](CO)OC3=O)cc2F)C=N1 [Compound 92],–,–,–,1 µg/mL,64 µg/mL,–,–
O=C1O[C@@H](CO)CN1c1ccc(N2C=NNCC2)c(F)c1 [Compound 93],–,–,–,1 µg/mL,32 µg/mL,–,–
CC(=O)NC[C@H]1CN(c2ccc(N3C=NN(C=O)CC3)cc2)C(=O)O1 [Compound 95],–,–,–,1 µg/mL,16 µg/mL,–,–
CC(=O)NC[C@H]1CN(c2ccc(N3C=NN(C)CC3)cc2)C(=O)O1 [Compound 96],–,–,–,2 µg/mL,16 µg/mL,–,–
COC(=S)NC[C@H]1CN(c2ccc(N3C=NN(C=O)CC3)cc2)C(=O)O1 [Compound 97],–,–,–,0.5 µg/mL,8 µg/mL,–,–
COC(=S)NC[C@H]1CN(c2ccc(N3C=NN(C)CC3)cc2)C(=O)O1 [Compound 98],–,–,–,1 µg/mL,16 µg/mL,–,–
O=CN1CCN(c2ccc(N3C[C@H](Cn4ccnn4)OC3=O)cc2)C=N1 [Compound 99],–,–,–,2 µg/mL,32 µg/mL,–,–
O=CN1CCN(c2ccc(N3C[C@H](CNc4ccon4)OC3=O)cc2)C=N1 [Compound 100],–,–,–,0.5 µg/mL,32 µg/mL,–,–
CN1CCN(c2ccc(N3C[C@H](CNc4ccon4)OC3=O)cc2)C=N1 [Compound 101],–,–,–,1 µg/mL,32 µg/mL,–,–
COC(=S)NC[C@H]1CN(c2ccc(N3C=NOCC3)cc2)C(=O)O1 [Compound 102],84 µM,89 µM,> 130 µM,0.25 µg/mL,4 µg/mL,–,–
O=CN1CCN(c2c(F)cc(N3C[C@H](Cn4ccnn4)OC3=O)cc2F)C=N1 [Compound 103],–,–,–,0.25 µg/mL,16 µg/mL,–,–
CN1CCN(c2c(F)cc(N3C[C@H](Cn4ccnn4)OC3=O)cc2F)C=N1 [Compound 104],–,–,–,2 µg/mL,32 µg/mL,–,–
O=CN1CCN(c2c(F)cc(N3C[C@H](CNc4ccon4)OC3=O)cc2F)C=N1 [Compound 105],–,–,–,0.5 µg/mL,16 µg/mL,–,–
CN1CCN(c2c(F)cc(N3C[C@H](CNc4ccon4)OC3=O)cc2F)C=N1 [Compound 106],–,–,–,0.5 µg/mL,16 µg/mL,–,–
"CC(=O)NC[C@H]1CN(c2ccc(N3CCOCC3)c(F)c2)C(=O)O1 [Linezolid, linezolid, reference compound]",4.3 µM,7.9 µM,> 130 µM,2 µg/mL,–,–,32 µg/mL
"Cn1nnc(-c2ccc(-c3ccc(N4C[C@H](CO)OC4=O)cc3F)cn2)n1 [TR-700, reference compound]",6.1 µM,< 2 µM,28 µM,–,–,–,–
